One assay relates to mES cells. The experiment in a line: Neural induction of mES cells, quantitative image analysis (Tuj1-positive cells, axon length). It is filed as cell-based, mouse. Conditions: after neural induction; FIG. 32. The procedure:
Neural induction of mES cells was conducted by adding RA or RA/AMSN19 complex. In particular, 10^−6M RA or 25 μg of RA/AMSN19 (corresponding to 3×10^−6M including RA) was used for treatment of mES cells in a complete mES medium for 2 days. A non-induction group was cultured as a negative control group. After 2 days, the medium was replaced with a new nerve cell culture medium, N2B27. The medium was replaced on alternate days.
For quantitative analysis, 5 representative fluorescent images were obtained from different immunostain samples, respectively. The images were analyzed by an ImageJ program. For Tuj1-positive cell analysis, the number of florescent cells expressing Tuj1 more than a critical value was measured from each image, followed by calculating a ratio of the measured number to a total number of nuclei. For measurement of a length of axon, axons contained in 50 cells in each sample were analyzed by a line measurement device. In consideration of 100 representative axons, an average value was calculated.

In assay [1] the test system is nerve cells or fibroblasts. The experiment in a line: Transfection rate of factors carried in DDV. Conditions: factor carried in DDV. Format: cell-based.
Assay [2] concerns nerve cells or fibroblasts. The experiment in a line: Forward differentiation rate with factors carried in DDV. It is filed as cell-based. Particulars: factor carried in DDV.
Excerpt: (§1) This process was repeated 3 times.
as §1

For `CC1=C(/C=C/C(C)=C/C=C/C(C)=C/C(=O)O)C(C)(C)CCC1` [RA, retinoic acid], the “Cell conversion efficiency (rate of Tuj1 positive cells among entire cells survived)” value with mES cells is recorded as “about 30%”.
For the molecule `Nc1ncn([C@@H]2O[C@H](CO)[C@@H](O)[C@H]2O)c(=O)n1` [5-azacytidine], in assay [1], the Transfection rate was 50-95%. Moreover, in assay [2], the Forward differentiation rate is 5-30%.

The values are drawn from patent publication US11530132B2, “Composition comprising porous silica particles carrying a cell fate modulating factor” (LEMONEX INC., priority 2017, dated 2022).
